According to paper PMC3578829, “A Small Molecule (Pluripotin) as a Tool for Studying Cancer Stem Cell Biology: Proof of Concept” (PLoS ONE, 2013):
Several values for one entry are separate records, joined by “and”; a condition that tells them apart may be missing. Equal entries are not always repeated.

Experiments:
[1] = test system: Seven Colon Tumor Lines of the NCI60 Panel; assay: Limiting dilution tumorigenicity, combined colon tumor lines; type: in vivo, NOD.SCID mice; settings: for Tumor take rate, TOTAL: 7 colon tumor lines treated 5 days with 0.1 µM SC-1
Procedure: (§1) Five day exposures were conducted.
Six week old female NOD.SCID mice were randomly assigned to each of 20 treatment arms (n = 5/group). Treated and control colon tumor lines were enzymatically harvested and counted prior to dilution in RPMI 1640 (at 10, 100, 1,000, 10,000 cells/inoculum) for subcutaneous injection into the axillary region using a volume of […]. Positive control groups were established such that tumor formation occurred in all mice in approximately one week thus confirming that all tumor lines studied were tumorigenic. Cell inocula for the positive control groups ranged from 1×10^6 to 2.5×10^6. Cell viability of the cell stocks was assessed by trypan blue exclusion prior to dilution for injection and was routinely found to be >95%. Tumor formation was monitored weekly using caliper measurements and the tumor mass was calculated as weight in mg = 1/2×(tumor length)×(tumor width)^2. All experiments were terminated at 120 days or when tumor weight exceeded 2000 mg for any individual mouse. In selected studies, tumor cells were resuspended in Matrigel (50% concentration, BD Biosciences) prior to injection.
Chi square tests and nonparametric conditional estimate for the Cochran Mantel-Haenzel common odds ratio were performed for the limiting dilution tumorigenicity studies. In the later case, the tumor lines were used as the stratification variable and the test evaluated whether the tumor take rate was equal in the two groups (control and treated). The purpose of combining data across distinct colon tumor lines was to aggregate small changes that if summed, may represent a heterogeneous population of patients with colon tumors, similar to analyses in clinical trials.

OCT4 = assay: Immunoblotting of OCT4 in HCC-2998; type: cell-based; settings: 0.1 µM SC-1
Procedure: (§2) Standard protein electrophoretic techniques were followed using previously published protocols. For these studies, the colon lines were cultured for 5 days with and without treatments, harvested with trypsin (0.25% trypsin 0.5 mM EDTA, Invitrogen), counted and lysed with a whole cell lysis buffer (10 mM Tris, 1.0 mM EDTA, 50 mM NaCl, 0.5% deoxycholate, 0.5% NP-40, 0.5% SDS, 1.0 mM PMSF, and aprotonin and a cocktail of phosphatase and protease inhibitors). The whole cell lysate was heated to 100°C for 10 min and then fractionated (1000 g, 10 min, 4°C). Protein concentrations were measured with the Pierce BCA Protein Assay. Twenty to 40 µg of protein lysate per lane were loaded onto 10% SDS polyacrylamide gels (Ready-Gels, Biorad) with Laemmli buffer. For immunoblotting, the primary antibodies were diluted in Tween/Tris wash buffer (0.1 mM Tris-HCl pH 7.5, 2.5% Tween-20, 150 mM NaCl) and 5% BSA or nonfat dry milk and incubated overnight at 4°C. Visualization of specific bands was accomplished with an alkaline phosphatase-labeled secondary anti-immunoglobulin antibody and the ECF Chemifluorescent reagent (GE Amersham). Pixel intensity of the imaged bands was measured using STORM (GE Amersham) and Image Quant Software. Normalization for loading was accomplished by reprobing with an anti-actin antibody, quantification of pixel intensity and data normalization.

HT29 [2] = assay: Soft agar cloning assay; type: cell-based
Procedure: (§3) The soft agar colony formation assay has been previously described. In brief, for each treatment condition, triplicate 35 mm^2 dishes were coated with a 1 ml base layer containing 0.7% agarose (Seaplaque: FMC Corp., Rockland, ME). On day 0, cells were dissociated, washed once in growth medium, and subcultured by layering various cell concentrations in 0.5 ml culture medium containing 0.3% agarose onto the base coat. Culture dishes were transferred to a refrigerator (4°C) for 15 min, to room temperature for 10 min, and then to culture incubators. An upper layer of 0.5 ml culture medium was applied on day 0. Cultures were stained with MTT (1 mg/ml) for visualization and imaging at multiple time intervals (day 7 and 14). Cumulative counts of colonies (diameters, >60 µm) and cumulative volumes of CFU (diameters >120 µm) were determined with an Omnicon FAS-II (Bausch & Lomb, Rochester, NY) following calibration with an Omnicon test plate 3 and polystyrene microspheres embedded in soft agar matrix. The evaluable region of each culture dish (35 contiguous fields equivalent to 51% of the cell layer culture volume) was analyzed. Selective scoring of viable cell groups was achieved by adjustment of the instrument detection threshold to exclude images of nonstained cellular material and debris. The data was analyzed with Lotus Symphony software.

KM12 [3] = assay: Soft agar cloning assay; type: cell-based
Procedure: as §3

COLO 205 [4] = assay: Soft agar cloning assay; type: cell-based
Procedure: as §3

HCT-116 [5] = assay: Soft agar cloning assay; type: cell-based
Procedure: as §3

HCC-2998 [6] = assay: Soft agar cloning assay; type: cell-based
Procedure: as §3

HT29 [7] = assay: Cell growth after five day exposure; type: cell-based; settings: 0.1 µM added day 1, harvested 5 days later
Procedure: as §1

KM12 [8] = assay: Cell growth after five day exposure; type: cell-based; settings: 0.1 µM added day 1, harvested 5 days later
Procedure: as §1

COLO 205 [9] = assay: Cell growth after five day exposure; type: cell-based; settings: 0.1 µM added day 1, harvested 5 days later
Procedure: as §1

SW-620 = assay: Cell growth after five day exposure; type: cell-based; settings: 0.1 µM added day 1, harvested 5 days later
Procedure: as §1

HCT-15 = assay: Cell growth after five day exposure; type: cell-based; settings: 0.1 µM added day 1, harvested 5 days later
Procedure: as §1

HCT-116 [10] = assay: Cell growth after five day exposure; type: cell-based; settings: 0.1 µM added day 1, harvested 5 days later
Procedure: as §1

HCC-2998 [11] = assay: Cell growth after five day exposure; type: cell-based; settings: 0.1 µM added day 1, harvested 5 days later
Procedure: as §1

RSK2 = assay: Immunoblotting of RSK2 protein levels in COLO 205; type: cell-based; settings: 5 days of exposure to 0.1 µM SC-1
Procedure: Since SC-1 inhibited RSK2 kinase activity, we first determined if RSK2 protein levels were altered.
as §2, with “Visualization of specific bands was accomplished with an alkaline phosphatase-labeled secondary anti-immunoglobulin antibody and the ECF Chemifluorescent reagent (GE Amersham).” left out

phospho-ERK1/2 = test system: phospho-ERK1/2; design: method as in PMID 17088537; settings: murine embryonic stem cells; 30 minutes of exposure; cited from earlier work
[12] = soft agar, summary of SC-1 effects

SMILES: Cc1cc(Nc2ncc3c(n2)N(C)C(=O)N(c2cc(NC(=O)c4cccc(C(F)(F)F)c4)ccc2C)C3)n(C)n1 [SC-1]
- Tumor take rate, TOTAL ([1]; 100 cells inoculated s.c.): 2/35
- Tumor take rate, TOTAL ([1]; 1000 cells inoculated s.c.): 6/35
- Tumor take rate, TOTAL ([1]; 10000 cells inoculated s.c.): 19 of 35 and 19/35
- Frequency estimate of tumor initiating ability, increase vs control ([1]; cumulative tumor take rate, 7 colon tumor lines, calculated from Taswell): approximately 2 fold
- Mean day to 1000 mg tumor ([1]; mean±s.e.m. of 5 colon lines forming tumors, 10,000 cells/inoculum, 0.1 µM SC-1 pretreatment): 83 ± 19 days
- OCT4 protein expression (OCT4): increased
- Cloning efficiency in soft agar vs control (HT29 [2]; 0.1 µM SC-1 for five days): significant increases in cloning efficiencies
- Clonogenicity (HT29 [2]; [12]): Y
- Cloning efficiency in soft agar vs control (KM12 [3]; 0.1 µM SC-1 for five days): significant increases in cloning efficiencies
- Clonogenicity (KM12 [3]; [12]): Y
- Colony formation in soft agar vs control (COLO 205 [4]; 0.1 µM SC-1 for 24 hrs prior to cloning): increased colony formation was found only at the highest plating density
- Cloning efficiency in soft agar vs control (COLO 205 [4]; 0.1 µM SC-1 for five days): significant increases in cloning efficiencies
- Clonogenicity (COLO 205 [4]; [12]): Y
- Cloning efficiency in soft agar vs control (HCT-116 [5]; 0.1 µM SC-1 for five days): significant increases in cloning efficiencies
- Clonogenicity (HCT-116 [5]; [12]): Y
- Cloning efficiency in soft agar vs control (HCC-2998 [6]; 0.1 µM SC-1 for five days): significant increases in cloning efficiencies
- Clonogenicity (HCC-2998 [6]; [12]): Y
- Fold Change from Initial Inocula (HT29 [7]): 17.5
- Fold Change from Initial Inocula (KM12 [8]): 20.6
- Fold Change from Initial Inocula (COLO 205 [9]): 2
- Fold Change from Initial Inocula (SW-620): 27.5
- Fold Change from Initial Inocula (HCT-15): 19.8
- Fold Change from Initial Inocula (HCT-116 [10]): 31
- Fold Change from Initial Inocula (HCC-2998 [11]): 4
- Decrease of RSK2 protein levels (RSK2): 33%
- phospho-ERK1/2 protein levels (phospho-ERK1/2): inhibited
